# Experimental data from US20080009418A1, “Selective Inhibitors” (Alchemia LTD., priority 2004, published 2008).
# Legend:
# [1] = biological target: T1, Human neuropeptide Y (NPY-Y1) (Homo sapiens, UniProt P25929); assay: Radioligand binding, human neuropeptide Y NPY-Y1 membranes, FlashPlate, [125I]-PYY; settings: compound at 10 μM; [125I]-PYY
# T1 construct: purchased Perkin Elmer Biosignal
# T1 sequence (P25929 1-384): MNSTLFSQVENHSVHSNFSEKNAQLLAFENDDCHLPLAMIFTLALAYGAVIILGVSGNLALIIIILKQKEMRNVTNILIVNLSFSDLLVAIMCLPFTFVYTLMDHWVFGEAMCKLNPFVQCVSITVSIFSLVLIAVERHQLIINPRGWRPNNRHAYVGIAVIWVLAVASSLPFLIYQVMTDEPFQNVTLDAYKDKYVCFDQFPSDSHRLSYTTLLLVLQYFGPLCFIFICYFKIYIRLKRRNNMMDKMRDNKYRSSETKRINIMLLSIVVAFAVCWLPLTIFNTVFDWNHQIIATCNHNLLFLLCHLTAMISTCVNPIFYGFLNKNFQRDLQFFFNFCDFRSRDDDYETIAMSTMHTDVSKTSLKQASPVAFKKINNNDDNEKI
# Method in brief: (§1)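 Cloned human receptor membranes were coated onto FlashPlate wells and incubated with radioligand and compound (added from a 0.5 mM DMSO daughter plate) for 1 hour at room temperature in the dark. Scintillation counting gave percent inhibition, with DMSO defining total and reference ligand defining non-specific binding.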
# Mouse urotensin (mUR2) = biological target: T2, Mouse urotensin (mUR2) (Mus musculus, UniProt Q8VIH9); assay: Radioligand binding, mouse urotensin mUR2 membranes, FlashPlate, [125I]-Urotensin II; settings: compound at 10 μM; [125I]-Urotensin II
# T2 construct: purchased Perkin Elmer Biosignal
# T2 sequence (Q8VIH9 1-385): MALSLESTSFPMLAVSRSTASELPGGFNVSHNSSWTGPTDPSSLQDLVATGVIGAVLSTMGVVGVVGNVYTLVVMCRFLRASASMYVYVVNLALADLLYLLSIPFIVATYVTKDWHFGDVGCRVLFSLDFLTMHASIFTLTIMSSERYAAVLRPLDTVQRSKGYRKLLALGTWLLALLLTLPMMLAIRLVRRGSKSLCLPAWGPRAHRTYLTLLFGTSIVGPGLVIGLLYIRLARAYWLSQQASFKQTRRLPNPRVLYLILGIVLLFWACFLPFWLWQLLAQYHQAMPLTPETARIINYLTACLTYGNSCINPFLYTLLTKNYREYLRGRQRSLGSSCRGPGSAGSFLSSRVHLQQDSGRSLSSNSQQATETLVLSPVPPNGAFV
# Method in brief: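 Cloned mouse urotensin (mUR2) receptor membranes from Perkin Elmer Biosignal were immobilized in FlashPlate microplates using a proprietary coating. Each well got 19.5 μl buffer, then 0.5 μl of DMSO, reference ligand, or compound. Adding 5 μl of [125I]-Urotensin II, diluted to 5× final concentration in binding buffer, started binding. Plates were sealed with TopSeal-A and incubated 1 hour at room temperature in the dark. Wells were counted for 30 seconds each on a TopCount after a 60-second delay, and percentage inhibition was calculated.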
# Human μ-opioid (MOP) = biological target: T3, Human μ-opioid (MOP) (Homo sapiens, UniProt P35372); assay: Radioligand binding, human μ-opioid (MOP) membranes, FlashPlate, [3H]-Naloxone; settings: compound at 10 μM; [3H]-Naloxone
# T3 construct: purchased Perkin Elmer Biosignal
# Method in brief: as §1
# Human Melanocortin (MC3) = biological target: T4, Human Melanocortin (MC3) (Homo sapiens, UniProt P41968); assay: Radioligand binding, human melanocortin MC3 membranes, FlashPlate, [125I]-NDP-αMSH; settings: compound at 10 μM; [125I]-NDP-αMSH
# T4 construct: purchased Perkin Elmer Biosignal
# Method in brief: as §1
# Human opioid (ORL1) = biological target: T5, Human opioid (ORL1) (Homo sapiens, UniProt P41146); assay: Radioligand binding, human opioid ORL1 membranes, FlashPlate, [125I]-Nociceptin; settings: compound at 10 μM; [125I]-Nociceptin
# T5 construct: purchased Perkin Elmer Biosignal
# Method in brief: as §1
# Human δ-opioid (DOP) = biological target: T6, Human δ-opioid (DOP) (Homo sapiens, UniProt P41143); assay: Radioligand binding, human δ-opioid (DOP) membranes, FlashPlate, [3H]-Bremazocine; settings: compound at 10 μM; [3H]-Bremazocine
# T6 construct: purchased Perkin Elmer Biosignal
# Method in brief: as §1
# [2] = biological target: T7, Human melanin-concentrating hormone (MCH1) (Homo sapiens, UniProt Q99705); assay: Radioligand binding, human melanin-concentrating hormone MCH1 membranes, FlashPlate, [125I]-S36057; settings: compound at 10 μM; [125I]-S36057
# T7 construct: purchased Perkin Elmer Biosignal
# Method in brief: as §1
# Human neurokinin (NK1) = biological target: T8, Human neurokinin (NK1) (Homo sapiens, UniProt P25103); assay: Radioligand binding, human neurokinin NK1 membranes, filtration, [125I]-Substance P; settings: compound at 10 μM; [125I]-Substance P
# T8 construct: purchased Perkin Elmer Biosignal
# Method in brief: (§2)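 Membranes from cloned human receptors were incubated with compound and radioligand for 1 hour at room temperature. Bound ligand was collected on 0.3% PEI-soaked filters, washed with cold 50 mM Tris-HCl pH 7.4, and counted by scintillation. Percent inhibition was computed against DMSO totals and reference-ligand nonspecific wells.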
# Human Melanocortin (MC4) = biological target: T9, Human Melanocortin (MC4) (Homo sapiens, UniProt P32245); assay: Radioligand binding, human melanocortin MC4 membranes, FlashPlate, [125I]-NDP-αMSH; settings: compound at 10 μM; [125I]-NDP-αMSH
# T9 construct: purchased Perkin Elmer Biosignal
# Method in brief: as §1
# Human κ-Opioid (KOP) = biological target: T10, Human κ-Opioid (KOP) (Homo sapiens, UniProt P41145); assay: Radioligand binding, human κ-opioid (KOP) membranes, filtration, [3H]-Diprenorphine; settings: compound at 10 μM; [3H]-Diprenorphine
# T10 construct: purchased Perkin Elmer Biosignal
# Method in brief: as §2
# Human melanocortin (MC5) = biological target: T11, Human melanocortin (MC5) (Homo sapiens, UniProt P33032); assay: Radioligand binding, human melanocortin MC5 membranes, FlashPlate, [125I]-NDP-αMSH; settings: compound at 10 μM; [125I]-NDP-αMSH
# T11 construct: purchased Perkin Elmer Biosignal
# Method in brief: as §1
# T8 sequence (P25103 whole entry): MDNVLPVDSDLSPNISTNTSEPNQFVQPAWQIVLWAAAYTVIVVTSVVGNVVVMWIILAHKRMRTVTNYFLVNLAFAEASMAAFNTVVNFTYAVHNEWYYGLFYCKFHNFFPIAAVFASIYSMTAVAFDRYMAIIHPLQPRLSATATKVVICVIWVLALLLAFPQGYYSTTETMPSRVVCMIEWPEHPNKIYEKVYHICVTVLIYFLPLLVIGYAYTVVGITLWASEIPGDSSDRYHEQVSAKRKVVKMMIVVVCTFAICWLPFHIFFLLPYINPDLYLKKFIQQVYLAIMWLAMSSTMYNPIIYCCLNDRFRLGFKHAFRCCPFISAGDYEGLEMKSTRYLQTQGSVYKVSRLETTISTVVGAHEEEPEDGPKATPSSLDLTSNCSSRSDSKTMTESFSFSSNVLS
# T4 sequence (P41968 whole entry): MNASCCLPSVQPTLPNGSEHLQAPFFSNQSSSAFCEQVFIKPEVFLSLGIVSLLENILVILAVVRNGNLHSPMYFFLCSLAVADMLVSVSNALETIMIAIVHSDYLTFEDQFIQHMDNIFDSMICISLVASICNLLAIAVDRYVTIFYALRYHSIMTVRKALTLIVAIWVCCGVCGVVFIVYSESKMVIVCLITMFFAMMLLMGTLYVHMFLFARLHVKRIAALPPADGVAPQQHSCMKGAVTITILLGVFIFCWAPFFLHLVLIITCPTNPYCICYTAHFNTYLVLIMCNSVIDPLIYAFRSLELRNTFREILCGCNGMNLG
# T7 sequence (Q99705 whole entry): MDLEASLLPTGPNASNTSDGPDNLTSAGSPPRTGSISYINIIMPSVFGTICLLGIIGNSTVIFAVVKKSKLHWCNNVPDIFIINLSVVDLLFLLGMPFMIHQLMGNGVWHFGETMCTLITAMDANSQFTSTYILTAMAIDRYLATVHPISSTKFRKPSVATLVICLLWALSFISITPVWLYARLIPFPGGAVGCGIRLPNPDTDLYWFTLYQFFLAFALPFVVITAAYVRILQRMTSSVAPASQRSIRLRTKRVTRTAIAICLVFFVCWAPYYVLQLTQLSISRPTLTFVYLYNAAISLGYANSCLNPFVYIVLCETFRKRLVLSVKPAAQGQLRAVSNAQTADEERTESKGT
# T9 sequence (P32245 whole entry): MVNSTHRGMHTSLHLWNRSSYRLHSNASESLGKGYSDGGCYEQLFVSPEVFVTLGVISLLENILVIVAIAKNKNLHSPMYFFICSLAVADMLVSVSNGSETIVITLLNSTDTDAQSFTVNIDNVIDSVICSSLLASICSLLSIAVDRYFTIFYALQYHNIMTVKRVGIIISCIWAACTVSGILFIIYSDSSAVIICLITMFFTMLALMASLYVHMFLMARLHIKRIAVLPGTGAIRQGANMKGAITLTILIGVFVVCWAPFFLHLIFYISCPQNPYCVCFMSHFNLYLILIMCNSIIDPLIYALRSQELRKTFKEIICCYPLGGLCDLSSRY
# T10 sequence (P41145 whole entry): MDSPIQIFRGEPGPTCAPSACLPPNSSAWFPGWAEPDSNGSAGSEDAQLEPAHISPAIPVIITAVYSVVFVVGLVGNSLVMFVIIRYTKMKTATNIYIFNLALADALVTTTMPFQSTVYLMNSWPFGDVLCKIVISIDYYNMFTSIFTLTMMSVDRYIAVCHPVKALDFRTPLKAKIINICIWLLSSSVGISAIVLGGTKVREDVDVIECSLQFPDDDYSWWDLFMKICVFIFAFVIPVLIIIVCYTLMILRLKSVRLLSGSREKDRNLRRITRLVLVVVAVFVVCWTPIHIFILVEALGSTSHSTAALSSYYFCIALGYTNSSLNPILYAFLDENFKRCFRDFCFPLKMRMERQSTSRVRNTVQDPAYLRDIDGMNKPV
# T6 sequence (P41143 whole entry): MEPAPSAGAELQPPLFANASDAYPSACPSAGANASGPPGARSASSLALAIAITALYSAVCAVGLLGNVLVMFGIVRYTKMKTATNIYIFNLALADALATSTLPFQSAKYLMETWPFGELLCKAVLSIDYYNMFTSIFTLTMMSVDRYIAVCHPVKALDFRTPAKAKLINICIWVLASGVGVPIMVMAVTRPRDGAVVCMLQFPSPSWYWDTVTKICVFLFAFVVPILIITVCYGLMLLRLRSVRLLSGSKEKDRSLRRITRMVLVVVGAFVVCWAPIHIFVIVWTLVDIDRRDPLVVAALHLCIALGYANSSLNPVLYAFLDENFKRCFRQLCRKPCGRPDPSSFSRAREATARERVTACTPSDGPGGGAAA
# T3 sequence (P35372 whole entry): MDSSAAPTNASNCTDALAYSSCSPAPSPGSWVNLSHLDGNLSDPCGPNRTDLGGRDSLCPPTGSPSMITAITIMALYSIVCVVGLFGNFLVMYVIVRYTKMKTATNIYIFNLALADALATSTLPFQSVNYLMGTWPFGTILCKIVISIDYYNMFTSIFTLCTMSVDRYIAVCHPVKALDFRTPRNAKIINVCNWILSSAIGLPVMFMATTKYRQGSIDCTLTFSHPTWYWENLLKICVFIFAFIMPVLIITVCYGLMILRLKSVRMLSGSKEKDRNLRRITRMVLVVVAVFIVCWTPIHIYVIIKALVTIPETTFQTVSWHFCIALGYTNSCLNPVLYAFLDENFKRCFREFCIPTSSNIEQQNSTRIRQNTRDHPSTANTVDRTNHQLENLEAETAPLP
# T11 sequence (P33032 whole entry): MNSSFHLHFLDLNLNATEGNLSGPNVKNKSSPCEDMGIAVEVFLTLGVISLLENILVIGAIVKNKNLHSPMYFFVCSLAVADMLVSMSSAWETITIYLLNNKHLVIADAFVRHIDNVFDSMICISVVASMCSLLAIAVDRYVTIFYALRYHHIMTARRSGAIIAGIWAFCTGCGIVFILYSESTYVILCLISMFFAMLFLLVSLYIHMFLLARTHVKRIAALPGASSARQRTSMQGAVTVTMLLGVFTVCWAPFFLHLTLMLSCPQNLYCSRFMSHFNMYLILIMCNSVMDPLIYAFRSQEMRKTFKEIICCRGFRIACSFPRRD
# T5 sequence (P41146 whole entry): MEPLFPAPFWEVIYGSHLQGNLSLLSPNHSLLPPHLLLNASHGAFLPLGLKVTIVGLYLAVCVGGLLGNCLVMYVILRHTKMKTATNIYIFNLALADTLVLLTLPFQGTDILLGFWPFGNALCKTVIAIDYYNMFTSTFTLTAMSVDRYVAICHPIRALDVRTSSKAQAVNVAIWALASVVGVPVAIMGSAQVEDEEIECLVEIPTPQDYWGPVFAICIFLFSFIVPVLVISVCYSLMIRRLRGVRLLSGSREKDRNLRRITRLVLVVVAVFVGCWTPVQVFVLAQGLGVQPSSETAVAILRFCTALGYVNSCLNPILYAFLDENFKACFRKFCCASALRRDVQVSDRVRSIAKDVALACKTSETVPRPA
Compound,"A9 radioligand binding, percentage inhibition [1]","A11 radioligand binding, percentage inhibition (Mouse urotensin (mUR2))","A7 radioligand binding, percentage inhibition (Human μ-opioid (MOP))","A3 radioligand binding, percentage inhibition (Human Melanocortin (MC3))","A10 radioligand binding, percentage inhibition (Human opioid (ORL1))","A1 radioligand binding, percentage inhibition (Human δ-opioid (DOP))","A6 radioligand binding, percentage inhibition [2]","A8 radioligand binding, percentage inhibition (Human neurokinin (NK1))","A4 radioligand binding, percentage inhibition (Human Melanocortin (MC4))","A2 radioligand binding, percentage inhibition (Human κ-Opioid (KOP))","A5 radioligand binding, percentage inhibition (Human melanocortin (MC5))"
CO[C@H]1[C@H](O)[C@@H](COCc2ccc3ccccc3c2)OC(OCc2cccc(O)c2)[C@@H]1NC(=O)CCCN (stereo partly shown) [compound 167],− (“−” indicates less than 50% inhibition at 10 μM),− (“−” indicates less than 50% inhibition at 10 μM),− (“−” indicates less than 50% inhibition at 10 μM),− (“−” indicates less than 50% inhibition at 10 μM),− (“−” indicates less than 50% inhibition at 10 μM),− (“−” indicates less than 50% inhibition at 10 μM),− (“−” indicates less than 50% inhibition at 10 μM),+ (“+” indicates greater than 50% inhibition at 10 μM),− (“−” indicates less than 50% inhibition at 10 μM),− (“−” indicates less than 50% inhibition at 10 μM),− (“−” indicates less than 50% inhibition at 10 μM)
CO[C@H]1[C@H](O)[C@@H](COCc2ccc3ccccc3c2)OC(OCc2cccc(O)c2)[C@@H]1NC(=O)CCCNC(=N)N (stereo partly shown) [compound 168],− (“−” indicates less than 50% inhibition at 10 μM),− (“−” indicates less than 50% inhibition at 10 μM),+ (“+” indicates greater than 50% inhibition at 10 μM),− (“−” indicates less than 50% inhibition at 10 μM),− (“−” indicates less than 50% inhibition at 10 μM),− (“−” indicates less than 50% inhibition at 10 μM),− (“−” indicates less than 50% inhibition at 10 μM),+ (“+” indicates greater than 50% inhibition at 10 μM),− (“−” indicates less than 50% inhibition at 10 μM),− (“−” indicates less than 50% inhibition at 10 μM),− (“−” indicates less than 50% inhibition at 10 μM)
CO[C@H]1[C@H](O)[C@@H](COCc2ccc(Cl)cc2)OC(OCc2cccc(O)c2)[C@@H]1NC(=O)CCCN (stereo partly shown) [compound 169],− (“−” indicates less than 50% inhibition at 10 μM),− (“−” indicates less than 50% inhibition at 10 μM),− (“−” indicates less than 50% inhibition at 10 μM),− (“−” indicates less than 50% inhibition at 10 μM),− (“−” indicates less than 50% inhibition at 10 μM),− (“−” indicates less than 50% inhibition at 10 μM),− (“−” indicates less than 50% inhibition at 10 μM),+ (“+” indicates greater than 50% inhibition at 10 μM),− (“−” indicates less than 50% inhibition at 10 μM),− (“−” indicates less than 50% inhibition at 10 μM),− (“−” indicates less than 50% inhibition at 10 μM)
CO[C@H]1[C@H](O)[C@@H](COCc2ccc(Cl)cc2)OC(OCc2cccc(O)c2)[C@@H]1NC(=O)CCCNC(=N)N (stereo partly shown) [compound 170],− (“−” indicates less than 50% inhibition at 10 μM),− (“−” indicates less than 50% inhibition at 10 μM),+ (“+” indicates greater than 50% inhibition at 10 μM),− (“−” indicates less than 50% inhibition at 10 μM),− (“−” indicates less than 50% inhibition at 10 μM),− (“−” indicates less than 50% inhibition at 10 μM),− (“−” indicates less than 50% inhibition at 10 μM),+ (“+” indicates greater than 50% inhibition at 10 μM),− (“−” indicates less than 50% inhibition at 10 μM),− (“−” indicates less than 50% inhibition at 10 μM),+ (“+” indicates greater than 50% inhibition at 10 μM)
COCC1OC(OCc2ccccc2)C(NC(=O)CNC(=N)N)C(OCc2ccccc2)C1O (stereo not shown) [compound 171],− (“−” indicates less than 50% inhibition at 10 μM),− (“−” indicates less than 50% inhibition at 10 μM),− (“−” indicates less than 50% inhibition at 10 μM),− (“−” indicates less than 50% inhibition at 10 μM),− (“−” indicates less than 50% inhibition at 10 μM),− (“−” indicates less than 50% inhibition at 10 μM),− (“−” indicates less than 50% inhibition at 10 μM),+ (“+” indicates greater than 50% inhibition at 10 μM),− (“−” indicates less than 50% inhibition at 10 μM),− (“−” indicates less than 50% inhibition at 10 μM),+ (“+” indicates greater than 50% inhibition at 10 μM)
